In patent US10112926B2 (priority 2014, dated 2018) one finds IC50 data, which are given here for 19 compounds.

Where a name gives a salt, the structure may show the parent alone.

The target in experiment [1] is Vps34 (Homo sapiens (Human), UniProt Q8NEB9). The conditions noted are these: read-out: Assay C VPS34 IC50.
Experiment [2] addresses mTOR (Homo sapiens (Human), UniProt P42345). As to conditions: read-out: Assay G mTOR IC50.
The target in experiment [3] is PI 4-kinase beta (Homo sapiens (Human), UniProt Q9UBF8). As to conditions: read-out: Assay D PI4Kβ IC50.
PI 4-kinase beta, sequence (Q9UBF8 whole entry): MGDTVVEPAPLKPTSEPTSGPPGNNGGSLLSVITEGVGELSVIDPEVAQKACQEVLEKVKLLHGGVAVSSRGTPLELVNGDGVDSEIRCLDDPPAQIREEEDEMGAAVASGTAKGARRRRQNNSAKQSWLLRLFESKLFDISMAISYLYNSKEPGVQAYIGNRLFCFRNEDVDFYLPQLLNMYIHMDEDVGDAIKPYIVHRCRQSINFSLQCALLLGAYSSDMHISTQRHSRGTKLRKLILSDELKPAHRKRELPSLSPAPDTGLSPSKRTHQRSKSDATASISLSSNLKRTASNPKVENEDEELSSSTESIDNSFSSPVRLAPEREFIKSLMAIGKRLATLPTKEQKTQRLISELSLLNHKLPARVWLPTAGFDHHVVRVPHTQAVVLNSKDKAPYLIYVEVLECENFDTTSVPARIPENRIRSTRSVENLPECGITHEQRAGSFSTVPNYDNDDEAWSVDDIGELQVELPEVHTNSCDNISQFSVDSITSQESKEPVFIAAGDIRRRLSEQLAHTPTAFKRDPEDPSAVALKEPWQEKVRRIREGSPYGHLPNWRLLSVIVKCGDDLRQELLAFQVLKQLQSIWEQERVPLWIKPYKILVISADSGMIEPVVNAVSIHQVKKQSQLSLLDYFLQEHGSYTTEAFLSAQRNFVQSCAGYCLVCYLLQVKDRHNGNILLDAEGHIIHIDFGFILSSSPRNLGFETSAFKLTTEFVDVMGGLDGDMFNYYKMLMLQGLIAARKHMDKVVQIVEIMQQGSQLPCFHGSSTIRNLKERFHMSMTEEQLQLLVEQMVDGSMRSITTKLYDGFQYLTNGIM

Vps34, sequence (Q8NEB9 whole entry): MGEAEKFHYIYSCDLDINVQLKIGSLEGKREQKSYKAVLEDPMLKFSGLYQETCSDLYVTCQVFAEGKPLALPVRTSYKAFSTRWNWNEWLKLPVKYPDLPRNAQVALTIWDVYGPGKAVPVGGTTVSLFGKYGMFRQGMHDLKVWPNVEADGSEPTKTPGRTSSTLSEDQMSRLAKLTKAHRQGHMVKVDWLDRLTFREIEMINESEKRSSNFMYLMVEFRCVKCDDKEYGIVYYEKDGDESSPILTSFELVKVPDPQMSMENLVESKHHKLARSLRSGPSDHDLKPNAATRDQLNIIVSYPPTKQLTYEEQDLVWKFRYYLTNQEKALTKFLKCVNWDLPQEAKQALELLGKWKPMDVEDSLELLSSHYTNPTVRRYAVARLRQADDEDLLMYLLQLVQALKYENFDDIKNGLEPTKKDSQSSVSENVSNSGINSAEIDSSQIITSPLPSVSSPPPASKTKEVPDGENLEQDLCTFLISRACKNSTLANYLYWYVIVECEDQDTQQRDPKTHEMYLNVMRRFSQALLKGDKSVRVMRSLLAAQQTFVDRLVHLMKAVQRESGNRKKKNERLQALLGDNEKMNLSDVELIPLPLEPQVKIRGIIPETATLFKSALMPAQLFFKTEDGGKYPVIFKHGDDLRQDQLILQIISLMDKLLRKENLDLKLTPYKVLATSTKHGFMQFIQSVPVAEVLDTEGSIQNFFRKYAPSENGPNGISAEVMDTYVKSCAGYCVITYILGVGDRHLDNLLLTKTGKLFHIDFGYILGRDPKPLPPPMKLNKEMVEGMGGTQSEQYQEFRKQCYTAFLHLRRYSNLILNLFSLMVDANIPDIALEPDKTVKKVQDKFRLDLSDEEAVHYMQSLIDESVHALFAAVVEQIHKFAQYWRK

As for `Cc1noc(-c2cc(-c3cc(S(=O)(=O)NOCC(C)(C)O)ccc3C)cnc2N)n1` [Example 11, 3-[6-Amino-5-(3-methyl-[1,2,4]oxadiazol-5-yl)-pyridin-3-yl]-N-(2-hydroxy-2-methyl-propoxy)-4-methyl-benzenesulfonamide, hydrochloride salt], the values for the IC50 in experiment [1], in experiment [2] and in experiment [3] were over 10 µM, over 10 µM and 5.1 µM, respectively.

For the compound `Cc1ccc(S(=O)(=O)NCCC(C)(C)O)cc1-c1cnc(N)c(-c2cnn(C)c2)c1` [Example 2, 3-(6-Amino-5-(1-methyl-1H-pyrazol-4-yl)pyridin-3-yl)-N-(3-hydroxy-3-methylbutyl)-4-methylbenzenesulfonamide], the values for the IC50 in experiment [1], in experiment [2] and in experiment [3] were over 9.1 µM, over 9.1 µM and 5.4 µM, respectively.

Regarding `Cc1cc(-c2cc(-c3cc(S(=O)(=O)NO[C@H]4C[C@H](O)C4)ccc3C)cnc2N)on1` [Example 95, trans-3-(6-amino-5-(3-methylisoxazol-5-yl)pyridin-3-yl)-N-((1r,3r)-3-hydroxycyclobutoxy)-4-methylbenzenesulfonamide], the figures for the IC50 in experiment [1], in experiment [2] and in experiment [3] were over 10 µM, over 10 µM and 0.86 µM, respectively.

In the case of `Cc1ccc(S(=O)(=O)NCC(C)(C)O)cc1-c1cnc(N)c(-c2nc(C(C)C)no2)c1` [Example 5.1, 3-(6-Amino-5-(3-isopropyl-1,2,4-oxadiazol-5-yl)pyridin-3-yl)-N-(2-hydroxy-2-methylpropyl)-4-methylbenzenesulfonamide hydrochloride], the half-inhibitory concentration (IC50) was over 10 µM in experiment [1], 8.2 µM in experiment [2] and 4.4 µM in experiment [3].

Regarding `Cc1ccc(S(=O)(=O)NCC(C)(C)O)cc1-c1cnc(N)c(-c2nc(C(F)F)no2)c1` [Example 71, 3-(6-Amino-5-(3-(difluoromethyl)-1,2,4-oxadiazol-5-yl)pyridin-3-yl)-N-(2-hydroxy-2-methylpropyl)-4-methylbenzenesulfonamide hydrochloride], the IC50 in experiment [2] is over 10 µM; in experiment [3], 10 µM.

For the compound `Cc1noc(-c2cc(-c3cc(S(=O)(=O)N4CC(CO)C4)ccc3C)cnc2N)n1` [Example 37.39, (S)-((3-(6-Amino-5-(3-methyl-1,2,4-oxadiazol-5-yl)pyridin-3-yl)-4-methylphenyl)sulfonyl)azetidin-3-yl)methanol], the IC50 in experiment [1] was over 10 µM; in experiment [2] it was over 10 µM; in experiment [3], 4.8 µM.

In the case of `Cc1noc(-c2cc(-c3cc(S(=O)(=O)NCC4(CO)CCC4)ccc3C)cnc2N)n1` [Example 37.26, 3-(6-Amino-5-(3-methyl-1,2,4-oxadiazol-5-yl)pyridin-3-yl)-N-((1-(hydroxymethyl)cyclobutyl)methyl)-4-methylbenzenesulfonamide], the 50% inhibitory concentration (IC50) in experiment [1], in experiment [2] and in experiment [3] was over 10 µM throughout.

Take `Cc1noc(-c2cc(-c3cc(S(=O)(=O)NCC4(C)COC4)ccc3C)cnc2N)n1` [Example 4.9, 3-(6-Amino-5-(3-methyl-1,2,4-oxadiazol-5-yl)pyridin-3-yl)-4-methyl-N-((3-methyloxetan-3-yl)methyl)benzene-sulfonamide]: the IC50 in experiment [1], in experiment [2] and in experiment [3] was over 10 µM in each case.

Consider `Cc1cc(-c2cc(-c3cc(S(=O)(=O)N[C@H]4CC[C@H](CO)CC4)ccc3C)cnc2N)ccn1` [Example 77, trans-3-(2-Amino-2′-methyl-[3,4′-bipyridin]-5-yl)-N-(−4-(hydroxymethyl)cyclohexyl)-4-methylbenzenesulfonamide hydrochloride], for which the IC50 in experiment [1] was over 10 µM; in experiment [2] it was over 10 µM; in experiment [3], 2.1 µM.

Consider `CCc1cc(-c2cc(-c3cc(S(=O)(=O)NCC(C)(C)O)ccc3C)cnc2N)on1` [Example 4.6, 3-(6-Amino-5-(3-ethylisoxazol-5-yl)pyridin-3-yl)-N-(2-hydroxy-2-methylpropyl)-4-methyl-benzenesulfonamide hydrochloride], for which the IC50 in experiment [1] is over 10 µM; in experiment [2] it was 1.4 µM; in experiment [3], 2.7 µM.

For the compound `Cc1ncc(-c2cc(-c3cc(S(=O)(=O)NCCCO)ccc3C)cnc2N)s1` [Example 9, 3-[6-Amino-5-(2-methyl-thiazol-5-yl)-pyridin-3-yl]-N-(3-hydroxy-propyl)-4-methyl-benzenesulfonamide], the 50% inhibitory concentration (IC50) in experiment [1] is 0.89 µM; in experiment [2] it was 5.9 µM; in experiment [3], 1.92 µM.

As to `Cc1noc(-c2cc(-c3cc(S(=O)(=O)NCC4CCOC4)ccc3C)cnc2N)n1` (stereo not shown) [Example 29, 3-(6-Amino-5-(3-methyl-1,2,4-oxadiazol-5-yl)pyridin-3-yl)-4-methyl-N-((tetrahydrofuran-3-yl)methyl)benzenesulfonamide], the half-inhibitory concentration (IC50) in experiment [1] is over 10 µM; in experiment [2] it was over 10 µM; in experiment [3] it was 9.9 µM.

As to `Cc1cccc(NS(=O)(=O)c2ccc(C)c(-c3cnc(N)c(-c4cnn(CC(F)(F)F)c4)c3)c2)n1` [Example 1, 3-{6-Amino-5-[1-(2,2,2-trifluoro-ethyl)-1H-pyrazol-4-yl]-pyridin-3-yl}-4-methyl-N-(6-methyl-pyridin-2-yl)-benzenesulfonamide], the 50% inhibitory concentration (IC50) was over 9.1 µM in experiment [1], 2.37 µM in experiment [2] and 1.95 µM in experiment [3].

`Cc1ccc(S(=O)(=O)NCCC(C)(C)O)cc1-c1cnc(N)c(-c2cnn(C)n2)c1` [Example 106, 3-(6-amino-5-(2-methyl-2H-1,2,3-triazol-4-yl)pyridin-3-yl)-N-(3-hydroxy-3-methylbutyl)-4-methylbenzenesulfonamide]: the IC50 in experiment [1] is over 10 µM; in experiment [2], 7.6 µM; in experiment [3] it was 6.4 µM.

For `Cc1noc(-c2cc(-c3cc(S(=O)(=O)NOC(C)C)ccc3C)cnc2N)n1` [Example 45, 3-(6-Amino-5-(3-methyl-1,2,4-oxadiazol-5-yl)pyridin-3-yl)-N-isopropoxy-4-methylbenzenesulfonamide], the IC50 in experiment [1] is over 10 µM; in experiment [2], 9.1 µM; in experiment [3], 7.4 µM.

On to `Cc1ncc(-c2cc(-c3cc(S(=O)(=O)N[C@H]4CC[C@H](O)CC4)ccc3C)cnc2N)o1` [Example 98, 3-(6-amino-5-(2-methyloxazol-5-yl)pyridin-3-yl)-N-((1r,4r)-4-hydroxycyclohexyl)-4-methylbenzenesulfonamide hydrochloride], for which the figures for the IC50 in experiment [2] and in experiment [3] were 7.9 µM and 0.83 µM, respectively.

Regarding `COC1(C)CN(S(=O)(=O)c2ccc(C)c(-c3cnc(N)c(-c4nc(C)no4)c3)c2)C1` [Example 37.2, 5-(5-((3-Methoxy-3-methylazetidin-1-yl)sulfonyl)-2-methylphenyl)-3-(3-methyl-1,2,4-oxadiazol-5-yl)pyridin-2-amine], the half-maximal inhibitory concentration (IC50) in experiment [2] and in experiment [3] was over 10 µM throughout.

Regarding `Cc1ccc(S(=O)(=O)NCC(C)(C)O)cc1-c1cnc(N)c(-c2cnoc2C)c1` [Example 62, 3-(6-Amino-5-(5-methylisoxazol-4-yl)pyridin-3-yl)-N-(2-hydroxy-2-methylpropyl)-4-methylbenzenesulfonamide], the IC50 in experiment [2] is over 10 µM; in experiment [3], 6.6 µM.

`Cc1ncc(-c2cc(-c3cc(S(=O)(=O)NCCC(C)(C)O)ccc3C)cnc2N)s1` [Example 4, 3-(6-Amino-5-(2-methylthiazol-5-yl)pyridin-3-yl)-N-(3-hydroxy-3-methylbutyl)-4-methylbenzenesulfonamide]: the half-inhibitory concentration (IC50) in experiment [2] was 2.63 µM; in experiment [3], 1.44 µM.
